These results are taken from US9617226B2 (AbbVie Deutschland GmbH & Co. KG, priority 2014, dated 2017).

Assay [1] addresses human vasopressin V1a receptor (Homo sapiens (Human), UniProt P37288). Put plainly: Vasopressin V1a receptor binding assay. Particulars: selectivity quotient, human V1a vs human V1b. On the procedure: The test substances were dissolved in a concentration of 5 mM M in DMSO. Further dilution of these DMSO solutions took place as described for V1b.
The membrane pellet was again homogenized in a High-Pressure-Homogenizer, Polytec 50K at 1500 PSI (Heinemann, Germany) and subsequently taken up in 50 mM Tris-HCl, pH 7.4, homogenized and stored in aliquots frozen in liquid nitrogen at −190° C.
The incubation buffer was: 50 mM Tris, 10 mM MgCl2, 0.1% BSA, pH 7.4.
Duplicate determinations were carried out.
After incubation (60 minutes at room temperature), the samples were processed as described for V1b.
The binding parameters were calculated by nonlinear regression in SAS.

In assay [2] the target is human vasopressin V1b receptor (Homo sapiens (Human), UniProt P47901). Kind of assay: biochemical.
human vasopressin V1b receptor, sequence (P47901 whole entry): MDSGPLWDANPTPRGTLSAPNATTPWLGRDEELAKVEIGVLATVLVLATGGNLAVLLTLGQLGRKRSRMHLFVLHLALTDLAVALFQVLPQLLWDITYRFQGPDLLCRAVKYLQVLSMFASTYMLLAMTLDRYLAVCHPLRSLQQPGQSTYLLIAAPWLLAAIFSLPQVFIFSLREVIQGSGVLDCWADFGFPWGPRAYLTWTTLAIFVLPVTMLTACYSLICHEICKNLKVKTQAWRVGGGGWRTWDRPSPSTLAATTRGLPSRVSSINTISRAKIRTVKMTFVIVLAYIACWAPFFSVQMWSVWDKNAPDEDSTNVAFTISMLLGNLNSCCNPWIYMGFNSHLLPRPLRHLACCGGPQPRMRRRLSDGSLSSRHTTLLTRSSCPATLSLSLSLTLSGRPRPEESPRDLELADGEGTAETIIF

human vasopressin V1a receptor, sequence (P37288 whole entry): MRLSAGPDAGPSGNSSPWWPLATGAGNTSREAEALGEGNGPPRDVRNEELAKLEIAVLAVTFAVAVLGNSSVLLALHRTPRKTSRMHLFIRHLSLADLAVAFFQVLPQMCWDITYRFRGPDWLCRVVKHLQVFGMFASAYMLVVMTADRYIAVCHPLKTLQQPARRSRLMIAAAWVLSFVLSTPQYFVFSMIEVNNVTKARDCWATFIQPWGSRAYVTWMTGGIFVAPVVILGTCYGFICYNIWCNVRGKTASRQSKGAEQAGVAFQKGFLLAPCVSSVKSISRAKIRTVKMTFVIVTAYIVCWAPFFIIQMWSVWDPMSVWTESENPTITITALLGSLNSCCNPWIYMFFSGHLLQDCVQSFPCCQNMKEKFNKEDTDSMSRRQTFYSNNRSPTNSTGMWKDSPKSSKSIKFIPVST

With `CC(C)NC(=O)Cn1c(-c2cccc(Cl)c2)nc2ccc([C@H]3C[C@@H](CN4CCC[C@@H](O)C4)C3)cc2c1=O` [Example 33, cis-2-[2-(3-Chlorophenyl)-6-[3-[[(3R)-3-hydroxy-1-piperidyl]methyl]cyclobutyl]-4-oxo-quinazolin-3-yl]-N-isopropyl-acetamide], the “Ki(h-V1a)/Ki(h-V1b)” value in assay [1] is given as “+++ (>75)”. Moreover, the Ki in assay [2] fell in the range of 1 to 10 nM.
On to `CC(C)NC(=O)Cn1c(-c2cccc(Cl)c2)nc2ccc([C@H]3C[C@@H](CN4CC[C@@H](C)C4)C3)cc2c1=O` [Example 34, cis-2-[2-(3-Chlorophenyl)-6-[3-[[(3R)-3-methylpyrrolidin-1-yl]methyl]cyclobutyl]-4-oxo-quinazolin-3-yl]-N-isopropyl-acetamide], for which the “Ki(h-V1a)/Ki(h-V1b)” value in assay [1] is “+++ (>75)”. The molecule also came in with a Ki in assay [2] of 1 to 10 nM.
Consider `COC1CN(C[C@H]2C[C@@H](c3ccc4nc(-c5cccc(Cl)c5)n(CC(=O)NC(C)C)c(=O)c4c3)C2)C1` [Example 35, cis-2-[2-(3-Chlorophenyl)-6-[3-[(3-methoxyazetidin-1-yl)methyl]cyclobutyl]-4-oxo-quinazolin-3-yl]-N-isopropyl-acetamide], for which the “Ki(h-V1a)/Ki(h-V1b)” value in assay [1] was “+++ (>75)”. The molecule also registered a Ki in assay [2] of 10 to 100 nM.
Regarding `CC(C)NC(=O)Cn1c(-c2cccc(Cl)c2)nc2ccc([C@H]3C[C@@H](CN4CCC(C)(O)CC4)C3)cc2c1=O` [Example 36, cis-2-[2-(3-Chlorophenyl)-6-[3-[(4-hydroxy-4-methyl-1-piperidyl)methyl]cyclobutyl]-4-oxo-quinazolin-3-yl]-N-isopropyl-acetamide], the “Ki(h-V1a)/Ki(h-V1b)” value in assay [1] is on record as “+++ (>75)”. The molecule also displayed a Ki in assay [2] of 1 to 10 nM.
Regarding `CC(C)NC(=O)Cn1c(-c2cccc(Cl)c2)nc2ccc([C@H]3C[C@@H](CN4CCC[C@H](O)C4)C3)cc2c1=O` [Example 37, cis-2-[2-(3-Chlorophenyl)-6-[3-[ [(3S)-3-hydroxy-1-piperidyl]methyl]cyclobutyl]-4-oxo-quinazolin-3-yl]-N-isopropyl-acetamide], the “Ki(h-V1a)/Ki(h-V1b)” value in assay [1] is listed as “+++ (>75)”. Moreover, in assay [2], the Ki fell in the range of 1 to 10 nM.
Consider `CC(C)NC(=O)Cn1c(-c2cccc(Cl)c2)nc2ccc([C@H]3C[C@@H](CN4CCC(C(F)(F)F)CC4)C3)cc2c1=O` [Example 38, cis-2-[2-(3-Chlorophenyl)-4-oxo-6-[3-[[4-(trifluoromethyl)-1-piperidyl]methyl]cyclobutyl]quinazolin-3-yl]-N-isopropyl-acetamide], for which, in assay [1], the “Ki(h-V1a)/Ki(h-V1b)” value was “+++ (>75)”. For the same molecule, the Ki in assay [2] is 1 to 10 nM.
The corresponding values for `CC(C)NC(=O)Cn1c(-c2cccc(Cl)c2)nc2ccc([C@H]3C[C@@H](CN4CC5(CCOCC5)C4)C3)cc2c1=O` [Example 41, cis-2-[2-(3-Chlorophenyl)-6-[3-(7-oxa-2-azaspiro[3.5]nonan-2-ylmethyl)cyclobutyl]-4-oxo-quinazolin-3-yl]-N-isopropyl-acetamide] are “+++ (>75)” and 1 to 10 nM.
The corresponding values for `CC(C)NC(=O)Cn1c(-c2cccc(Cl)c2)nc2ccc([C@H]3C[C@@H](CN4C[C@@H](C)O[C@@H](C)C4)C3)cc2c1=O` [Example 42, cis-2-[2-(3-Chlorophenyl)-6-[3-[[(2S,6R)-2,6-dimethylmorpholin-4-yl]methyl]cyclobutyl]-4-oxo-quinazolin-3-yl]-N-isopropyl-acetamide] are “+++ (>75)” and 1 to 10 nM.
Regarding `CC(C)NC(=O)Cn1c(-c2cccc(Cl)c2)nc2ccc([C@H]3C[C@@H](CN4CCOC[C@H]4C)C3)cc2c1=O` [Example 44, cis-2-[2-(3-Chlorophenyl)-6-[3-[[(3R)-3-methylmorpholin-4-yl]methyl]cyclobutyl]-4-oxo-quinazolin-3-yl]-N-isopropyl-acetamide], the “Ki(h-V1a)/Ki(h-V1b)” value in assay [1] is reported as “+++ (>75)”. This molecule also displayed a Ki in assay [2] of 1 to 10 nM.
The corresponding values for `C[C@H](NC(=O)Cn1c(-c2cccc(Cl)c2)nc2ccc([C@H]3C[C@@H](CN4CCCCC4)C3)cc2c1=O)C(F)(F)F` [Example 45] are “+++ (>75)” and 1 to 10 nM.
Consider `C[C@@H](NC(=O)Cn1c(-c2cccc(Cl)c2)nc2ccc([C@H]3C[C@@H](CN4CCCCC4)C3)cc2c1=O)C(F)(F)F` [Example 46], for which the “Ki(h-V1a)/Ki(h-V1b)” value in assay [1] is listed as “++ (25-75)”. The same molecule showed a Ki in assay [2] of 10 to 100 nM.
